{"source": "patent US20040071787A1", "about": "“Pharmacologic, therapeutic and diagnostic regulation of FGF-1 export” (Maine Medical Center Research Institute, priority 1996, published 2004)", "molecules": {"B1": {"name": "recombinant human p40 Syn-1 (other, UniProt P21579 104-422, looked up)", "chain": "MKDVKDLGKTMKDQALKDDDAETGLTDGEEKEEPKEEEKLGKLQYSLDYDFQNNQLLVGIIQAAELPALDMGGTSDPYVKVFLLPDKKKKFETKVHRKTLNPVFNEQFTFKVPYSELGGKTLVMAVYDFDRFSKHDIIGEFKVPMNTVDFGHVTEEWRDLQSAEKEEQEKLGDICFSLRYVPTAGKLTVVILEAKNLKKMDVGGLSDPYVKIHLMQNGKRLKKKKTTIKKNTLNPYYNESFSFEVPFEQIQKVQVVVTVLDYDKIGKNDAIGKVFVGYNSTGAELRHWSDMLANPRRPIAQWHTLQVEEEVDAMLAVKK", "notes": "domain: p40 form of Syn-1; also called p45; p40/45"}}, "key": {"[1]": {"tested_on": "NIH-3T3 FGF-1-β-gal:p40 Syn-1 co-transfectants", "test": "p40 Syn-1 release from p40 Syn-1 co-transfectants at 37° C. or after heat shock, Syn-1 immunoblot", "type": "cell-based, murine", "conditions": "FIG. 18", "protocol": "Amlexanox was also tested for an effect on the heat shock response of NIH-3T3 FGF-1-β-gal:p40 Syn-1 co-transfectants described above in Example 11. Media were conditioned by two 150 mm dishes of NIH3T3 cells stably co-transfected with FGF-1:β-Gal and rat p40 Syn-1 after exposure to temperature stress (41.5° C., 90 min) with or without treatment. The media were collected and resolved by 10% acrylamide SDS-PAGE under reducing conditions followed by immunoblot analysis for Syn-1 as described herein and in the cited references.\n(FIG. 18: Lane 1: media derived from NIH3T3 cell FGF-1:β-Gal and p40 Syn1 co-transfectants maintained at 37° C. for 90 min. Lane 2: media derived from NIH3T3 cell FGF-1:β-gal and p40 Syn-1 co-transfectants following heat shock. Lanes 3 and 4: media derived from NIH3T3 cell FGF-1:β-gal and p40 Syn-1 co-transfectants maintained at 37° C. in the presence of 5×10^−5M, and […] AA673 (amlexanox) respectively. Lane 5: media derived from NIH3T3 cell FGF-1:β-gal and p40 Syn-1 co-transfectants following heat shock in the presence of 3×10^−4M, AA673. Lane 6: 50 ng of recombinant rat p40 Syn-1.)"}, "[2]": {"tested_on": "NIH 3T3 FGF-1 transfectants", "test": "Heat shock induced FGF-1 and p40 Syn-1 release by FGF-1 transfectants, immunoblot of conditioned media", "type": "cell-based, murine", "protocol": "Chemical derivatives of amlexanox were tested for their effects on FGF-1 and p40 Syn-1 release by NIH 3T3 FGF-1 transfectants in response to heat shock. Media were conditioned by three 150 mm dishes of NIH3T3 cells stably transfected with FGF-1α (residues 21-154) after exposure to 41.5° C. for 90 min with or without amlexanox or the indicated amlexanox derivative. The media were collected and resolved by 12.5% acrylamide SDS-PAGE under reducing conditions followed by immunoblot analysis for FGF-1 as described herein.\n(FIG. 19: Lane 1: media derived from NIH3T3 cell FGF-1 transfectants following heat shock in the absence of any drug; Lanes 2 through 4: media derived from NIH3T3 cell FGF-1 transfectants following heat shock in the presence of 1×10^−6 M, 1×10^−5 M, 1×10^−4 M, A673 (amlexanox) respectively; Lanes 5 through 7: media derived from NIH3T3 cell FGF-1 transfectants following heat shock in the presence of 1×10^−6 M, 1×10^−5 M, 1×10^−4 M AA617 respectively; Lanes 8 through 10: media derived from NIH3T3 cell FGF-1 transfectants following heat shock in the presence of 1×10^−6 M, 1×10^−5 M, 1×10^−4 M AA648 respectively; Lanes 11 through 13: media derived from NIH3T3 cell FGF-1 transfectants following heat shock in the presence of 1×10^−6 M, 1×10^−5 M, 1×10^−4 M, AA777 respectively; Lane 14: media derived from NIH3T3 cell FGF-1 transfectants maintained at 37° C. for 90 min; Lane 15, 50 ng of recombinant human FGF-1α. The structures of amlexanox (AA673) and its derivatives are also shown."}, "[3]": {"tested_on": "NIH 3T3 FGF-1-β-gal:p65 Syn-1 co-transfectants", "test": "Heat shock induced release of FGF-1-β-gal and Syn-1 from co-transfectants, immunoblot of heparin binding fraction of conditioned medium", "type": "cell-based, murine", "conditions": "heat shock 41.5° C. for 90 min; concentration dependent; FIG. 17", "protocol": "Stable NIH 3T3 FGF-1:β-gal transfectants were co-transfected with either p65 Syn-1, p65(Δ120-214) or p40 and maintained in Dulbecco's modified Eagle's medium (DMEM, GIBCO-BRL, Grand Island, N.Y.) containing 10% (v/v) bovine calf serum (BCS, Hyclone, Logan, Utah), 1× antibiotic-antimycotic (GIBCO-BRL) and 200 μg/ml G418 (GIBCO-BRL) and 250 μg/ml hygromycin (Boehringer Mannheim, Indianapolis, Ind.) on sterile tissue culture dishes coated with 10 μg/cm^2 human fibronectin prepared from human plasma by affinity adsorption to a column of immobilized type I collagen by methods well known in the art. […] Nat. Acad. Sci. USA 89:10691, 1992). […]\nFollowing heat shock, conditioned media were collected, filtered using 0.2 μm filters (Millipore, Bedfore, Mass. ) according to the supplier's recommendations, and activated with 0.1% (w/v) dithiothreitol (DTT, Sigma, St. Louis, Mo.) for 2 h at 37° C. […] Aliquots of the concentrated eluates were analyzed by 10% sodium dodecylsulfate polyacrylamide gel electrophoresis (SDS-PAGE) as described (Jackson et al., J. Biol Chem. 270:33, 1995). […]\nIn this Example, the effects of members of the amlexanox family of pharmacologic agents known to bind to S100A13 (Oyama et al., Biochem. Biophys. Res. Commun. 240:341, 1997) were evaluated in cell based assay systems for export of FGF1:Syn-1 complexes in vitro. […]"}, "[4]": {"tested_on": "3T3 cell line transfected with a chimeric FGF-1 construct having a functional signal sequence", "test": "Secretion by 3T3 cell line transfected with chimeric FGF-1 construct having a functional signal sequence (classical ER-Golgi pathway)", "type": "cell-based", "conditions": "not shown", "from_the_text": "In a concentration dependent fashion, amlexanox inhibited the release of both FGF-1-β-gal and Syn-1 from NIH 3T3 FGF-1-β-gal:p65 Syn-1 co-transfectants in response to heat shock (FIG. 17). […] A 3T3 cell line transfected with a chimeric FGF-1 construct having a functional signal sequence for secretion via the classical ER-Golgi protein secretory pathway (Forough et al., J. Biol. Chem. 268:2960, 1993) was unaffected by amlexanox by several phenotypic criteria, including secretory activity (not shown)."}, "[5]": {"tested_on": "NIH 3T3 FGF-1-β-gal:p65 Syn-1 co-transfectants", "test": "Effects of pharmacologic inhibitors on heat shock induced release of p40", "type": "cell-based, murine", "conditions": "heat shock 42° C. for 100 min", "protocol": "Stable NIH 3T3 FGF-1:β-gal transfectants were co-transfected with either p65 Syn-1, p65(Δ120-214) or p40 and maintained in Dulbecco's modified Eagle's medium (DMEM, GIBCO-BRL, Grand Island, N.Y.) containing 10% (v/v) bovine calf serum (BCS, Hyclone, Logan, Utah), 1× antibiotic-antimycotic (GIBCO-BRL) and 200 μg/ml G418 (GIBCO-BRL) and 250 μg/ml hygromycin (Boehringer Mannheim, Indianapolis, Ind.) on sterile tissue culture dishes coated with 10 μg/cm^2 human fibronectin prepared from human plasma by affinity adsorption to a column of immobilized type I collagen by methods well known in the art. Confluent monolayers of co-transfectants were rinsed with DMEM containing 4 U/ml heparin (Upjohn, Kalamazoo, Mich.) and subjected to heat shock (42° C. for 100 min) in DMEM containing 4 U/ml heparin and 0.5% BCS as described (Jackson et al., Proc. Nat. Acad. Sci. USA 89:10691, 1992). For each Syn-1 construct, three independent co-transfectant clones were tested.\nFollowing heat shock, conditioned media were collected, filtered using 0.2 μm filters (Millipore, Bedfore, Mass. ) according to the supplier's recommendations, and activated with 0.1% (w/v) dithiothreitol (DTT, Sigma, St. Louis, Mo.) for 2 h at 37° C. (Jackson et al., J. Biol. Chem. 270:33, 1995). Conditioned media were then passed over a column of heparin-Sepharose™ CL-6B (Pharmacia Biotech, Piscataway, N.J.) equilibrated and eluted with 50 mM Tris pH 7.4 containing 10 mM EDTA (TE buffer, TEB). Following TEB washing, the column was eluted with 1.5 M NaCl in TEB and the eluate collected and concentrated using a Centricon™ 10 concentrator (Amicon, Inc., Beverly, Mass.) according to the manufacturer's instructions. Aliquots of the concentrated eluates were analyzed by 10% sodium dodecylsulfate polyacrylamide gel electrophoresis (SDS-PAGE) as described (Jackson et al., J. Biol Chem. 270:33, 1995). Electrophoretically separated samples were further characterized by immunoblot analysis as described (Jackson et al., Proc. Nat. Acad. Sci. USA 89:10691, 1992). […]"}, "[6]": {"tested_on": "FGF-1-NIH 3T3 transfectants", "conditions": "agent in the media of cultured cells exposed to heat shock; cited from earlier work"}, "[7]": {"target": "the molecule itself", "test": "Cu2+ oxidation, non-reduced SDS-PAGE", "protocol": "Purified FGF-1 and p40 Syn-1 were incubated with, and without, Cu²⁺ for 10 min. and resolved on two non-reduced SDS-PAGE gels (A and B), as described by Maciag et al., Recent Prog. Horm. Res. 49:105-123 (1993). The systems were identical except gel 5B was immunoblotted with FGF-1 antibody, whereas gel 5A was not.\nHowever, when FGF-1 and p40 Syn-1 were added together, non-reduced SDS-PAGE was able to resolve a unique component with an apparent Mᵣ˜66,000 (FIG. 6A). To determine whether this band contained FGF-1, this experiment was repeated and analyzed by FGF-1 immunoblot analysis."}, "[8]": {"conditions": "41.5° C. for 90 min, 1×10^−6 M, 1×10^−5 M, 1×10^−4 M, FIG. 19"}}, "note": "Entries after “also recorded” stand apart in the source; their conditions may differ. Starred links: 1 amine or outer side, 2 acyl side, 3 side chain; linkers in the order of their positions; H or OH if unused. Positions of bridges follow the written chain, without caps; N, C: chain ends. Non-standard residues stand in square brackets, D forms with d. Residues, ends and D or L forms follow the SMILES beside them. Chains are numbered I, II in the order given. Actinocin(9to1) = Cc1c2oc3c(C)ccc(C(=O)[*:1])c3nc-2c(C(=O)[*:2])c(N)c1=O; NMeV = CN[C@H](C(=O)O)C(C)C; Sar = CNCC(=O)O", "data": [{"molecule": "CC(C)c1ccc2oc3nc(N)c(C(=O)O)cc3c(=O)c2c1", "note": "[amlexanox]", "values": [{"measurement": "constitutive release of p40 Syn-1", "setting": "[1]; 37° C., 5×10^−5M and 3×10^−1M AA673", "value": "no effect"}, {"measurement": "enhanced p40 export in response to heat shock", "setting": "[1]; heat shock 41.5° C., 90 min, 3×10^−4M AA673", "value": "did inhibit"}, {"measurement": "FGF-1 release in response to temperature stress", "setting": "[2]; [8]", "value": "inhibition"}, {"measurement": "p40 Syn-1 release in response to temperature stress", "setting": "[2]; [8]", "value": "inhibition"}, {"measurement": "FGF-1 release in response to heat shock", "setting": "[2]; NIH 3T3 cell line stably transfected with FGF-1 instead of FGF-1-β-gal, not shown", "value": "inhibited FGF-1 release"}, {"measurement": "release of FGF-1-β-gal in response to heat shock", "setting": "[3]", "value": "inhibited; also recorded: inhibition"}, {"measurement": "release of Syn-1 in response to heat shock", "setting": "[3]", "value": "inhibited; also recorded: inhibition"}, {"measurement": "effect on phenotypic criteria, including secretory activity", "setting": "[4]", "value": "unaffected"}]}, {"molecule": "C[C@@H]1C[C@@H]([C@H](O)CC2CC(=O)NC(=O)C2)C(=O)[C@@H](C)C1", "note": "[cycloheximide]", "values": [{"measurement": "heat shock induced release of p40", "setting": "[5]", "value": "inhibited"}, {"measurement": "release of latent FGF-1", "setting": "[6]", "value": "inhibited"}]}, {"molecule": "C[C@H]1CCC/C=C/[C@@H]2C[C@H](O)C[C@H]2[C@H](O)/C=C/C(=O)O1", "note": "[brefeldin A]", "values": [{"measurement": "heat shock induced release of p40", "setting": "[5]", "value": "unaffected"}]}, {"molecule": "Cc1c2oc3c(C)ccc(C(=O)N[C@@H]4C(=O)N[C@H](C(C)C)C(=O)N5CCC[C@H]5C(=O)N(C)CC(=O)N(C)[C@@H](C(C)C)C(=O)O[C@@H]4C)c3nc-2c(C(=O)N[C@@H]2C(=O)N[C@H](C(C)C)C(=O)N3CCC[C@H]3C(=O)N(C)CC(=O)N(C)[C@@H](C(C)C)C(=O)O[C@@H]2C)c(N)c1=O", "note": "[actinomycin D] (I: T[dV]P[Sar][NMeV] / II: T[dV]P[Sar][NMeV]; ester I:1-I:C, II:1-II:C; linker I:N-II:N via Actinocin(9to1))", "values": [{"measurement": "heat shock induced release of p40", "setting": "[5]", "value": "inhibited"}, {"measurement": "release of latent FGF-1", "setting": "[6]", "value": "inhibited"}]}, {"molecule": "B1", "values": [{"measurement": "binding result", "setting": "[7]", "value": "no binding"}]}]}
